Columns and labels:
[1] = molecular target: isolated recombinant JAK2 kinase domain (Homo sapiens (Human), UniProt O60674); assay: JAK2 enzyme assay (Caliper LabChip, peptide phosphorylation); type: biochemical; conditions: 25 μM ATP
[2] = system: JAK1-dependent STAT6 phosphorylation downstream of IL-13 stimulation in TF-1 human erythroleukemia cells; assay: JAK1 pathway assay in TF-1 cells (IL-13-pSTAT6, MSD); type: cell-based; conditions: Homo sapiens, TF-1, TF-1 cells, read-out: IL13-pSTAT6 EC50_TF-1
Procedure, shortened: (§1)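 BEAS-2B: complete growth medium, compound 1 hr at 37° C. TF-1: GM-CSF-starved overnight, serum-free OptiMEM, compound 30 min.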

[3] = Clearance assay: mouse intravenous (IV) clearance; type: in vivo; conditions: female BALB/c mice; for IV Mouse CL, % of liver blood flow: single IV dose of 1 mg/kg, clearance as % of mouse liver blood flow; for clearance: mouse, plasma, single IV dose of 1 mg/kg via the tail vein, read-out: IV Mouse CL
Description: In certain instances high systemic clearance of a drug substance may be of benefit. For example, in the treatment of pulmonary diseases it may be beneficial to have high drug concentrations in the lung, with lower concentrations in the bloodstream or peripheral organs. In such cases, it may be advantageous to administer a drug substance with high systemic clearance via the inhaled delivery route. This approach may maximize pharmacologic activity of the drug substance in the lung while minimizing the possibility of on-target toxicity elsewhere in the body. The functional groups appended to the 5-chloro-2-difluoromethoxyphenyl pyrazolopyrimidine scaffold affect systemic clearance.
Female BALB/c mice were obtained from Charles River Labs (Hollister, Calif. USA). Twelve animals were given a single IV dose of 1 mg/kg of compounds via the tail vein. A representative dose solution was prepared as follows: the compound was dissolved in a mixture of 5% dimethylsulfoxide (DMSO), 35% polyethylene glycol (PEG 400), and 60% water (v/v/v), respectively, and administered at a dosing volume of 5 mL/kg. Mice weighed approximately 20-25 g at the start of the study. After intravenous administration of compounds, each animal was bled twice via retro-orbital and cardiac puncture. PK time points were collected at 2 min, 5 min, 15 min, 30 min, 1 hr, 2 hr, 4 hr, and 8 hr post-dose. Plasma samples were stored at approximately −80° C. until thawed for LC-MS/MS analysis. PK data analysis was performed on mean plasma concentration-time data and PK parameters were determined by non compartmental methods using WinNonlin® Enterprise, version 5.2.1 (Pharsight Corporation; Mountain View, Calif.).

[4] = molecular target: isolated recombinant JAK1 kinase domain (Homo sapiens (Human), UniProt P23458); assay: JAK1 enzyme assay (Caliper LabChip, peptide phosphorylation); type: biochemical; conditions: isolated recombinant JAK1 kinase domain, 25 μM ATP
isolated recombinant JAK1 kinase domain, sequence (P23458 875-1153): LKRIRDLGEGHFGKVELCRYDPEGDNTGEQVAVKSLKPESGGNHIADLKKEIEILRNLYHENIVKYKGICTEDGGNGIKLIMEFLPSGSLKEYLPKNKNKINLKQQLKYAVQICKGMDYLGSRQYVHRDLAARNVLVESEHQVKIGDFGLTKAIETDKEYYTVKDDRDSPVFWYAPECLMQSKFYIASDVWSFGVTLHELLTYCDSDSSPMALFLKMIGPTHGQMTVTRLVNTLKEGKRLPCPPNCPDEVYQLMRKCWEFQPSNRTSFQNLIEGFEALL

[5] = system: JAK1-dependent STAT6 phosphorylation downstream of IL-13 stimulation in BEAS-2B human bronchial epithelial cells; assay: JAK1 pathway assay in BEAS-2B cells (IL-13-pSTAT6, MSD); type: cell-based; conditions: read-out: IL13-pSTAT6 EC50 (uM)_BEAS-2B
Procedure, shortened: as §1

isolated recombinant JAK2 kinase domain, sequence (O60674 849-1124): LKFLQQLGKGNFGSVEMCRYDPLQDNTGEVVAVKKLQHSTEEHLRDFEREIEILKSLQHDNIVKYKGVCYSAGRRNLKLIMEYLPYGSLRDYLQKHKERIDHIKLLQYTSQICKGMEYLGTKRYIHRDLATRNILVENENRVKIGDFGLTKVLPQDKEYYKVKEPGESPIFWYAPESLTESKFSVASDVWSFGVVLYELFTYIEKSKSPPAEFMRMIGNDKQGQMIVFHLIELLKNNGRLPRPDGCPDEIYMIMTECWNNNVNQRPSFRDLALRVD

Row | Ki [1] [nM] | EC50 [2] [nM] | IV Mouse CL, % of liver blood flow [3] [%] | clearance [3] [mL/min/kg] | Ki [4] [nM] | SMILES | EC50 [5] [µM]
1 | 1.81 | 3.8 | >100 | 178 | 0.79 | CN(Cc1ccccc1)C1CCN(C(=O)Cn2cc(NC(=O)c3cnn4cccnc34)c(-c3cc(Cl)ccc3OC(F)F)n2)CC1 [Example 98, N-[1-[2-[4-[benzyl(methyl)amino]-1-piperidyl]-2-oxo-ethyl]-3-[5-chloro-2-(difluoromethoxy)phenyl]pyrazol-4-yl]pyrazolo[1,5-a]pyrimidine-3-carboxamide] | 0.0381
2 | 0.76 | 1.7 | >100 | 234 | 0.4 | CN(CC(F)(F)F)C1CCN(C(=O)Cn2cc(NC(=O)c3cnn4cccnc34)c(-c3cc(Cl)ccc3OC(F)F)n2)CC1 [Example 99, N-[3-[5-chloro-2-(difluoromethoxy)phenyl]-1-[2-[4-[methyl(2,2,2-trifluoroethyl)amino]-1-piperidyl]-2-oxo-ethyl]pyrazol-4-yl]pyrazolo[1,5-a]pyrimidine-3-carboxamide] | 0.0305
3 | 1.1 | 8.5 | >100 | 140 | 0.62 | CN(CC(F)(F)c1ccccc1)C1CCN(C(=O)Cn2cc(NC(=O)c3cnn4cccnc34)c(-c3cc(Cl)ccc3OC(F)F)n2)CC1 [Example 102, N-[3-[5-chloro-2-(difluoromethoxy)phenyl]-1-[2-[4-[(2,2-difluoro-2-phenyl-ethyl)-methyl-amino]-1-piperidyl]-2-oxo-ethyl]pyrazol-4-yl]pyrazolo[1,5-a]pyrimidine-3-carboxamide] | 0.0347
4 | 0.69 | 2.3 | >100 | 222 | 0.33 | CN(CC(C)(F)F)C1CCN(C(=O)Cn2cc(NC(=O)c3cnn4cccnc34)c(-c3cc(Cl)ccc3OC(F)F)n2)CC1 [Example 134, N-[3-[5-chloro-2-(difluoromethoxy)phenyl]-1-[2-[4-[2,2-difluoropropyl(methyl)amino]-1-piperidyl]-2-oxo-ethyl]pyrazol-4-yl]pyrazolo[1,5-a]pyrimidine-3-carboxamide] | 0.0118
5 | 0.58 | 4.4 | 51 | 46 | 0.8 | CN1CCN(c2nc(-c3cc(Cl)ccc3OC(F)F)c(NC(=O)c3cnn4cccnc34)s2)CC1 [Example 205, Pyrazolo[1,5-a]pyrimidine-3-carboxylic acid [4-(5-chloro-2-difluoromethoxy-phenyl)-2-(4-methyl-piperazin-1-yl)-thiazol-5-yl]-amide] | 0.0338
6 | 0.28 | 7.4 | 71 | 64 | 0.78 | CN(C)CC#Cc1nc(-c2cc(Cl)ccc2OC(F)F)c(NC(=O)c2cnn3cccnc23)s1 [Example 209, Pyrazolo[1,5-a]pyrimidine-3-carboxylic acid [4-(5-chloro-2-difluoromethoxy-phenyl)-2-(3-dimethylamino-prop-1-ynyl)-thiazol-5-yl]-amide] | 0.0415
7 | 1.43 | 10 | >100 | 153 | 0.78 | CCN1CCN(C(=O)Cn2cc(NC(=O)c3cnn4cccnc34)c(-c3cc(Cl)ccc3OC(F)F)n2)CC1 [Example 233, Pyrazolo[1,5-a]pyrimidine-3-carboxylic acid {3-(5-chloro-2-difluoromethoxy-phenyl)-1-[2-(4-ethyl-piperazin-1-yl)-2-oxo-ethyl]-1H-pyrazol-4-yl}-amide] | 0.0181
8 | 0.37 | 1.6 | >100 | 219 | 0.15 | O=C(Nc1cn(CC(=O)N2CC=CCC2)nc1-c1cc(Cl)ccc1OC(F)F)c1cnn2cccnc12 [Example 284, N-[3-[5-chloro-2-(difluoromethoxy)phenyl]-1-[2-(3,6-dihydro-2H-pyridin-1-yl)-2-oxo-ethyl]pyrazol-4-yl]pyrazolo[1,5-a]pyrimidine-3-carboxamide] | 0.0125
9 | 0.57 | 6.2 | >100 | 95 | 0.89 | COCCNCCn1cc(NC(=O)c2cnn3cccnc23)c(-c2cc(Cl)ccc2OC(F)F)n1 [Example 294, N-[3-[5-chloro-2-(difluoromethoxy)phenyl]-1-[2-(2-methoxyethylamino)ethyl]pyrazol-4-yl]pyrazolo[1,5-a]pyrimidine-3-carboxamide] | 0.0367

— US9346815B2, “5-chloro-2-difluoromethoxyphenyl pyrazolopyrimidine compounds, compositions and methods of use thereof” (Genentech, Inc., priority 2014, dated 2016)
